Assays:
human OX1 receptor = biological target: T1, human OX1 receptor (Homo sapiens, UniProt O43613); assay: [3H]-radioligand binding assay, OX1; set-up: made in house; host or cells: SF21 insect cells (baculovirus; P0 virus made in SF9); conditions: for Ki: [3H]-radioligand binding, human OX1 membranes, read-out: pKi average OX1 (converted)
T1 sequence (O43613 1-425): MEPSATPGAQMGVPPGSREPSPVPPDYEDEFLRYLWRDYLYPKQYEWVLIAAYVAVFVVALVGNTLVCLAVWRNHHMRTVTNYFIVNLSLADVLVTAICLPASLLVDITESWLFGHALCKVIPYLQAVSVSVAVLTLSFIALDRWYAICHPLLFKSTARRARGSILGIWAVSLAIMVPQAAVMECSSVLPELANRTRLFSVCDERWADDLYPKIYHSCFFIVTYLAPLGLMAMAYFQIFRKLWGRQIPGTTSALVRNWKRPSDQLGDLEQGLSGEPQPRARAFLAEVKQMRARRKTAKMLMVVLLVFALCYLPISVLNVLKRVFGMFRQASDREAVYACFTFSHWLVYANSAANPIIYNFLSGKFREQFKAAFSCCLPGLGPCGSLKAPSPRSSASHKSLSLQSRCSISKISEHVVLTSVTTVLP
From the text: (§1) Cloning, Baculovirus generation, large-scale infection of SF21 cells and membrane preparation. Human OX1 or OX2 receptor were cloned into Invitrogen's (ThermoFisher Scientific, UK) Bac-to-Bac Baculovirus Expression System. P0 baculovirus was generated by transfecting SF9 cells with bacmid DNA using Cellfectin® II transfection reagent (ThermoFisher Scientific, UK, Catalog number 10362-100). Following P0 generation P1 virus was then generated ready for large scale infection and membrane preparation. SF21 cells were grown in expression medium ESF921 (Expression Systems, USA, catalog number 96-001-01) supplemented with 10% heat-inactivated FBS and 1% Pen/Strep and were infected at a cell density of 2.5×10^6 cells/mL and a multiplicity of infection of 1.0 for both human OX1R and OX2R. Incubation was carried out at over 48 h in a shaking incubator set at 27° C. The cell culture was then centrifuged at 2,500 rcf for 10 min at 4° C. The pellets were resuspended in cold PBS supplemented with Roche's Complete EDTA-free protease inhibitor cocktail tablets (Roche Applied Sciences, catalog number 05056489001), 1 mM PMSF and 1 mM EDTA. The resuspended cell paste was then centrifuged at 3,273 rcf for 12 min at 4° C. The supernatant was discarded and the pellet frozen at −80° C. The cell pellet from a 4 L culture was resuspended in buffer containing 50 mM HEPES pH 7.5, 150 mM NaCl, 8 Roche EDTA-Free protease inhibitor cocktail tablets and 1 mM PMSF. The suspension was left stirring at rt for 1 h and then homogenised for 90 s at 9,500 rpm using a VDI 25 (VWR, USA) homogeniser. The cells were then lysed using a Microfluidiser processor M-110L Pneumatic (Microfluidics, USA) at 60 PSI and membranes collected by ultracentrifugation at 204.7 k×g for 1 h. The supernatant was discarded and the pellet was resuspended and homogenised in 90 s at 9,500 rpm in 50 mL (25 mL for each 2 L culture) of buffer containing 50 mM Hepes pH 7.5, 150 mM NaCl, 3 Roche EDTA-free protease inhibitor cocktail tablets and 1 mM PMSF. The resulting membranes were then stored at −80° C.
(§2) [^3H]-radioligand binding assay. After thawing, membrane homogenates were resuspended in the binding buffer (8.5 mM HEPES, pH 7.4, 1.3 mM CaCl2, 1.2 mM MgSO4, 118 mM NaCl, 4.7 mM KCl, 4 mM NaHCO3, 1.2 mM KH2PO4, 11 mM glucose) to a final assay concentration of 6.4 μg (OX1) or 1.4 μg (OX2) protein per well. Saturation isotherms were determined by the addition of various concentrations (0-30 nM) of [^3H]-4-(2,6-difluoro-4-methoxybenzyl)-2-(5,6-dimethoxypyridin-3-yl)-2H-1,2,4-benzothiadiazin-3(4H)-one 1,1-dioxide (Christopher et al, MedChemComm., 2015, 6, 947-955) in a total reaction volume of 250 μL for 90 min at rt. At the end of the incubation, membranes were filtered onto a 96-well GF/B filter pre-incubated with 0.5% polyethylenimine, with a Tomtec cell harvester and washed 5 times with 0.5 mL distilled water. Non-specific binding (NSB) was measured in the presence of 3.33 μM [4-(5-chloro-1,3-benzoxazol-2-yl)-7-methyl-1,4-diazepan-1-yl][5-methyl-2-(2H-1,2,3-triazol-2-yl)phenyl]methanone (Wertz et al, Angew. Chem. Int. Ed., 2011, 50, 11511-11515). Radioactivity on the filter was counted (1 min) on a Microbeta radiometric plate counter (Perkin Elmer) after addition of 50 μL of scintillation fluid (LabLogic: Part #SG-BXX-14). […] IC50 values were derived from the inhibition curve and the equilibrium dissociation constant (Ki) values were calculated using the Cheng-Prusoff equation.

human OX2 receptor = biological target: T2, human OX2 receptor (Homo sapiens, UniProt O43614); assay: [3H]-radioligand binding assay, OX2; set-up: made in house; host or cells: SF21 insect cells (baculovirus; P0 virus made in SF9); conditions: for Ki: [3H]-radioligand binding, human OX2 membranes, read-out: pKi average OX2 (converted)
T2 sequence (O43614 1-444): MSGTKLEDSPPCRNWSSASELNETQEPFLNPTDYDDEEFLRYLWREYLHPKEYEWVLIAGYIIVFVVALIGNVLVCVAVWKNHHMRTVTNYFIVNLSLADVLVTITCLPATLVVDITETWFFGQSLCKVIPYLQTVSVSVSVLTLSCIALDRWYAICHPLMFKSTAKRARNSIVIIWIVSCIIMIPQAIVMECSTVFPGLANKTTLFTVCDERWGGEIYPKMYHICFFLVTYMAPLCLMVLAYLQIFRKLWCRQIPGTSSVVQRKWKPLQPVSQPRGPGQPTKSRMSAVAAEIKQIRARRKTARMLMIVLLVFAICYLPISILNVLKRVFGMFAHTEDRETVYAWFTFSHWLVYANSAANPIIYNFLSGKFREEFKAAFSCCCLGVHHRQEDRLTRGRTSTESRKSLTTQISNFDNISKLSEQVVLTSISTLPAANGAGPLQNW
From the text: as §1, §2

| Ki (human OX1 receptor) | Ki (human OX2 receptor) | Kd (human OX1 receptor; OX1 receptor membranes, saturation isotherms) | Kd (human OX2 receptor; OX2 receptor membranes, saturation isotherms) | SMILES |
| --- | --- | --- | --- | --- |
| 1.58 nM | > 15.8 nM |  |  | COCc1cc(F)c(CN2C(=O)C(c3cnc(C)c(C(C)(F)F)c3)CCc3c(F)cccc32)c(F)c1 (single isomer, unassigned) [Example 40, 3-[5-(1,1-difluoroethyl)-6-methylpyridin-3-yl]-1-[2,6-difluoro-4-(methoxymethyl)benzyl]-6-fluoro-1,3,4,5-tetrahydro-2H-1-benzazepin-2-one] |
| 1.26 nM | > 501 nM |  |  | Cc1ncc(C2CCc3c(F)cccc3N(Cc3cc(C#N)ccc3F)C2=O)cc1C(C)(F)F (single isomer, unassigned) [Example 41, 3-({3-[5-(1,1-difluoroethyl)-6-methylpyridin-3-yl]-6-fluoro-2-oxo-2,3,4,5-tetrahydro-1H-1-benzazepin-1-yl}methyl)-4-fluorobenzonitrile] |
|  |  | 1.5 nM | 0.75 nM | COc1cc(F)c(CN2C(=O)N(c3cnc(OC)c(OC)c3)S(=O)(=O)c3ccccc32)c(F)c1 [[^3H]-4-(2,6-difluoro-4-methoxybenzyl)-2-(5,6-dimethoxypyridin-3-yl)-2H-1,2,4-benzothiadiazin-3(4H)-one 1,1-dioxide, reference compound] |

Second part, the compound before the results:

| SMILES | Ki (human OX1 receptor) | Ki (human OX2 receptor) | Kd (human OX1 receptor; OX1 receptor membranes, saturation isotherms) | Kd (human OX2 receptor; OX2 receptor membranes, saturation isotherms) |
| --- | --- | --- | --- | --- |
| COc1ncc(C2CCc3c(F)cccc3N(Cc3c(F)cc(Br)cc3F)C2=O)cc1C(C)(F)F (single isomer, unassigned) [Example 11, 1-(4-bromo-2,6-difluorobenzyl)-3-[5-(1,1-difluoroethyl)-6-methoxypyridin-3-yl]-6-fluoro-1,3,4,5-tetrahydro-2H-1-benzazepin-2-one] | 1.58 nM | > 126 nM |  |  |
| COc1ncc(C2CCc3c(F)cccc3N(Cc3c(F)cc(Br)cc3F)C2=O)cc1S(C)(=O)=O (single isomer, unassigned) [Example 20, 1-(4-bromo-2,6-difluorobenzyl)-6-fluoro-3-[6-methoxy-5-(methylsulfonyl)pyridin-3-yl]-1,3,4,5-tetrahydro-2H-1-benzazepin-2-one] | 200 nM | > 631 nM |  |  |
